Assay results: patent US6458797B1, “Methods for remodeling neuronal and cardiovascular pathways” (Queen's University of Kingston, priority 1998, dated 2002)
Each block holds one molecule with its values, some of them ahead of it.

How the values were obtained:
α1-adrenoreceptor [1] = assay: Penile vascular bed perfusion, cumulative α1-adrenoreceptor concentration-response curve to methoxamine; parameters: species or system rat; details: mean ± SD; for Slope Methoxamine: steepest slope of concentration-response curve
Method: Male spontaneously hypertensive (SH) rats weighing between 246-313 g, and normotensive Sprague-Dawley (SD) rats weighing between 246-440 g were obtained from Charles River Laboratories (Montreal, Quebec, Canada). The animals were maintained in individual cages with a 12 hour light/12 hour dark cycle, and a room temperature of 22-24° C. They were provided with standard rodent chow and tap water ad libitum and were acclimated to the room for at least two days before the experiments. All procedures were carried out in accordance with the guidelines set out by the Canadian Council on Animal Care.
Penile perfusion preparations were made using the procedure established by Banting, J. D., et al., “Isolation and Perfusion of the Pudendal Vasculature in Male Rats. J Urol., 2: 587-590 (1995). A heated chamber served to maintain the ambient temperature and the entire preparation at 37-38° C. The perfusate was held in a reservoir and passed through a heating and a bubble trapping/mixing chamber connected to a single peristaltic pump (Minipuls 2 Pump, Gilson, Inc., 3000 W. Beltline Highway, Middleton, Wis. USA 53562). An injection port was located distal to the pump for the introduction of pharmacological agents to minimize dead volume. Drugs were administered via a Harvard Apparatus, Inc. infusion pump (Harvard Apparatus, Inc., 84 October Hill Road, Holliston, Mass. 01746). The perfusate was a Tyrode-dextran solution consisting of a mixture of 20 mg of KCI, 32.3mg of CaCl2.H2O, 5.1 mg of MgCl2.6H2O, 6.2 mg of NaH2PO4.2H2O, 155 mg of NaHCO3, 100 mg of glucose, and 800 mg of NaCl in each 100 mL of fluid. The solution was maintained at pH 7.4, and a temperature of 37-39° C., and oxygenated with 95% O2 and 5% CO2. The rats were anaesthetized (sodium pentobarbital 60 mg/kg body weight i.p.) and heparinized (1000 IU/kg, i.v.). The bilateral isolation of penile vasculature was achieved by ligating all of the branching arteries except for the pudendal; then the abdominal aorta was cannulated proximal to the iliac bifurcation with a single lumen catheter. The catheter was connected to the perfusion apparatus via a pressure transducer for arterial pressure recording. […] The perfusion pressure was continuously recorded on a data acquisition system (MacLab, AD Instruments, Houston, Tex.). […] The flow rate-perfusion/pressure relationship was determined by measuring the pressure at minimum vascular resistance at flow rates of 0.5, 1.0, 2.0, 4.0 mL/min per kg of body weight. […] At the end of the concentration-response relationship, the aorta was cut distal to the catheter, and a baseline flow-pressure curve was recorded again. […]

α1-adrenoreceptor [2] = assay: Hindlimb vascular bed perfusion, cumulative α1-adrenoreceptor concentration-response curve to methoxamine; parameters: species or system rat; details: mean ± SD
Method: Male spontaneously hypertensive (SH) rats weighing between 246-313 g, and normotensive Sprague-Dawley (SD) rats weighing between 246-440 g were obtained from Charles River Laboratories (Montreal, Quebec, Canada). The animals were maintained in individual cages with a 12 hour light/12 hour dark cycle, and a room temperature of 22-24° C. They were provided with standard rodent chow and tap water ad libitum and were acclimated to the room for at least two days before the experiments. All procedures were carried out in accordance with the guidelines set out by the Canadian Council on Animal Care. The hindlimb perfusion preparation was adopted from a technique originally designed by Folkow et al., Acta Physiol Scand., 80: 93-106 (1973), as modified by Adams et al., Hypertension, 14: 191-202 (1989). The perfusion experiment was performed as described above. Drugs were administered into the mixing chamber via a Harvard Apparatus infusion pump. […] Following a midline abdominal incision, the abdominal aorta was cannulated proximal to the iliac bifurcation with a double lumen catheter (Storz, St Louis, Mo., USA), and the catheter was extended down the right common iliac artery. One lumen of the catheter was connected to the perfusion apparatus, while the other was connected to a pressure transducer for arterial pressure recording. […] A cumulative α1-adrenoreceptor concentration-response curve to methoxamine (0.5, 1, 2, 4, 8, 16, 32, 64 μg/mL) was then generated. […] Subsequently, a bolus injection of a cocktail containing a supramaximal concentration of vasoconstrictors was given as above. At the end of the concentration-response relationship, the iliac artery was cut distal to the catheter, and the flow pressure curve was monitored again. Flow rates for the hindlimb perfusion experiments were determined based on expected flow rates of exercising skeletal muscle at maximum dilation. […] All values in the figures and tables were expressed as mean ± standard deviation. Results comparing penile and hindlimb vasculature were analyzed using the Student's t-test. […]

[3] = tested on: spontaneously hypertensive rats (SHR); assay: Left ventricle weight of SHR after 1 or 2 weeks of drug treatment; assay type: in vivo, rat; details: for Left Ventricle Weight (g)/Body Weight (kg) Ratio: control 2.46 ± 0.08
Method: Following this treatment, structurally-based resistance to blood flow in the perfused penile vascular bed and hindlimb vascular bed models were measured using the methods detailed above. […] The animal hearts were excised and weighed.

[4] = tested on: spontaneously hypertensive rats (SHR); assay: Structurally-based vascular resistance in perfused vascular bed of SHR after 1 or 2 weeks of drug treatment; assay type: in vivo, rat; details: for Slope Flow Pressure: control 7.13 ± 0.63; for Maximum Constriction With Cocktail “Yield”: control 381 ± 21
Method: Penile perfusion preparations were made using the procedure established by Banting, J. D., et al., “Isolation and Perfusion of the Pudendal Vasculature in Male Rats. J Urol., 2: 587-590 (1995). A heated chamber served to maintain the ambient temperature and the entire preparation at 37-38° C. The perfusate was held in a reservoir and passed through a heating and a bubble trapping/mixing chamber connected to a single peristaltic pump (Minipuls 2 Pump, Gilson, Inc., 3000 W. Beltline Highway, Middleton, Wis. USA 53562). An injection port was located distal to the pump for the introduction of pharmacological agents to minimize dead volume. Drugs were administered via a Harvard Apparatus, Inc. infusion pump (Harvard Apparatus, Inc., 84 October Hill Road, Holliston, Mass. 01746). The perfusate was a Tyrode-dextran solution consisting of a mixture of 20 mg of KCI, 32.3mg of CaCl2.H2O, 5.1 mg of MgCl2.6H2O, 6.2 mg of NaH2PO4.2H2O, 155 mg of NaHCO3, 100 mg of glucose, and 800 mg of NaCl in each 100 mL of fluid. The solution was maintained at pH 7.4, and a temperature of 37-39° C., and oxygenated with 95% O2 and 5% CO2. The rats were anaesthetized (sodium pentobarbital 60 mg/kg body weight i.p.) and heparinized (1000 IU/kg, i.v.). The bilateral isolation of penile vasculature was achieved by ligating all of the branching arteries except for the pudendal; then the abdominal aorta was cannulated proximal to the iliac bifurcation with a single lumen catheter. The catheter was connected to the perfusion apparatus via a pressure transducer for arterial pressure recording. After sectioning the vena cava and spinal cord to remove venous resistance and to eliminate neural influences, a flow of perfusate (1 mL/min per kg body weight) through the abdominal cannula was initiated. The perfusion pressure was continuously recorded on a data acquisition system (MacLab, AD Instruments, Houston, Tex.). The perfusate was infused for twenty minutes to flush the penile vasculature of blood and obtain a stable pressure before the beginning of any experiment. Following this, sodium nitroprusside (20 μg/mL) was infused to induce maximum vasodilation. The flow rate-perfusion/pressure relationship was determined by measuring the pressure at minimum vascular resistance at flow rates of 0.5, 1.0, 2.0, 4.0 mL/min per kg of body weight. A cumulative α1-adrenoreceptor concentration-response curve to methoxamine (2.5, 5, 10, 25, 50 μg/mL was then generated. Each concentration of methoxamine was infused for a duration of 10 minutes, at which time a plateau was reached. Subsequently, a continuous injection of a cocktail containing a supramaximal concentration of vasoconstrictors (vasopressin, 20.5 μg/mL, angiotensin-II, 200 ng/mL; methoxamine, 64 μg/mL; Sigma, St. Louis, Mo., 63178) was given to ensure that maximum constrictor response that was not dependent upon the activation of a single receptor type was achieved. A second injection of the constrictor cocktail was administered to ensure the tissue “yield” was maximum constriction. […] At the end of the concentration-response relationship, the aorta was cut distal to the catheter, and a baseline flow-pressure curve was recorded again. This was done to ensure that pressure fell to zero and to account for any false pressure readings that may have resulted due to movement of the catheter during the experiment.
The hindlimb perfusion preparation was adopted from a technique originally designed by Folkow et al., Acta Physiol Scand., 80: 93-106 (1973), as modified by Adams et al., Hypertension, 14: 191-202 (1989). The perfusion experiment was performed as described above. Drugs were administered into the mixing chamber via a Harvard Apparatus infusion pump. The rats were anaesthetized (Inactin, 100 mg/kg of body weight, i.p.) and heparinized (1000 IU/kg of body weight, i.v.).

[5] = SHR, enalapril 30 mg/kg per day, 2-week period of treatment, versus control
[6] = SHR-E1: enalapril 30 mg/kg per day, 1 week, n = 5
[7] = SHR-E2: enalapril 30 mg/kg per day, 2 weeks, n = 7
[8] = SHR-H: hydralazine 45 mg/kg per day, n = 7

Maximum Constriction With Methoxamine (α1-adrenoreceptor [1]; SD (normotensive Sprague-Dawley), methoxamine 50 μg/mL): 171 ± 36 mm Hg
Slope Methoxamine (α1-adrenoreceptor [1]; SD): 2.03±0.68
Maximum Constriction With Methoxamine (α1-adrenoreceptor [1]; SHR, perfusion pressure at supramaximal methoxamine 50 μg/mL): 172±32 mm Hg
Slope Methoxamine (α1-adrenoreceptor [1]; SHR): 1.64±0.21
Maximum Constriction With Methoxamine (α1-adrenoreceptor [2]; SD, methoxamine 64 μg/mL): 191 ± 55 mm Hg
Slope Methoxamine (α1-adrenoreceptor [2]; SD, steepest slope of concentration-response curve): 3.0±0.99
Maximum Constriction With Methoxamine (α1-adrenoreceptor [2]; SHR, perfusion pressure at supramaximal methoxamine 64 μg/mL): 253±25 mm Hg
SMILES: COc1ccc(OC)c(C(O)C(C)N)c1 (centres unmarked) [methoxamine]

SMILES: CCOC(=O)[C@H](CCc1ccccc1)N[C@@H](C)C(=O)N1CCC[C@H]1C(=O)O [enalapril]
decrease of left ventricular mass [3, 5]: 13.6%±3.2%
Left Ventricle Weight (g)/Body Weight (kg) Ratio [3, 6]: 2.17 ± 0.05 g/kg
Left Ventricle Weight (g)/Body Weight (kg) Ratio [3, 7]: 2.13 ± 0.08 g/kg
decrease of “yield” value [4, 5]: 12.1%±6.0%
Slope Flow Pressure [4, 6]: 6.10 ± 1.5
Maximum Constriction With Cocktail “Yield” [4, 6]: 358 ± 20 mm Hg
Slope Flow Pressure [4, 7]: 6.45 ± 1.31
Maximum Constriction With Cocktail “Yield” ([4]; SHR-E2: enalapril 30 mg/kg per day, 2 weeks, n = 7, vasopressin, angiotensin-II, methoxamine cocktail): 335 ± 23 mm Hg

SMILES: NNc1nncc2ccccc12 [hydralazine]
decrease of left ventricular weight ([3]; SHR, hydralazine 45 mg/kg per day, versus control, no significant effect): 3.7%±5.0%
Left Ventricle Weight (g)/Body Weight (kg) Ratio [3, 8]: 2.37 ± 0.12 g/kg
decrease of “yield” point ([4]; SHR, hydralazine 45 mg/kg per day, versus control): 7.3%±2.9%
Slope Flow Pressure [4, 8]: 6.63 ± 0.86
Maximum Constriction With Cocktail “Yield” [4, 8]: 353 ± 11 mm Hg
